Results as given in patent publication US10988523B2, “Modified lipidated Relaxin B chain peptides and their therapeutic use” (Sanofi, priority 2018, dated 2021).
*1 amine or outer side, *2 acyl side, *3 side chain or, on linkers, in order; H or OH if unused. Where a SMILES comes first, the peptide text is derived from it. Side-chain parts run from the residue outwards. [ ]: non-standard residue; d: D form. The star is where a group is joined. Lys(Me3) = C[N+](C)(C)CCCC[C@H](N)C(=O)O; γGlu = O=C(O)[C@H](CCC(=O)[*:2])N[*:1]; Arg(Me) = CNC(=N)NCCC[C@H](N)C(=O)O; Stearoyl = CCCCCCCCCCCCCCCCCC(=O)*; Palmitoyl = CCCCCCCCCCCCCCCC(=O)*; αMeK = C[C@](N)(CCCCN)C(=O)O; Nle = CCCC[C@H](N)C(=O)O; AEEA = NCCOCCOCC(=O)O; Aib = CC(C)(N)C(=O)O

Molecular target: T1, RXFP1 (Homo sapiens, UniProt Q9HBX9)
T1 construct: OVCAR5 cells expressing endogenous RXFP1; endogenous in cells; host or cells: OVCAR5 cells
T1 sequence (Q9HBX9 1-757): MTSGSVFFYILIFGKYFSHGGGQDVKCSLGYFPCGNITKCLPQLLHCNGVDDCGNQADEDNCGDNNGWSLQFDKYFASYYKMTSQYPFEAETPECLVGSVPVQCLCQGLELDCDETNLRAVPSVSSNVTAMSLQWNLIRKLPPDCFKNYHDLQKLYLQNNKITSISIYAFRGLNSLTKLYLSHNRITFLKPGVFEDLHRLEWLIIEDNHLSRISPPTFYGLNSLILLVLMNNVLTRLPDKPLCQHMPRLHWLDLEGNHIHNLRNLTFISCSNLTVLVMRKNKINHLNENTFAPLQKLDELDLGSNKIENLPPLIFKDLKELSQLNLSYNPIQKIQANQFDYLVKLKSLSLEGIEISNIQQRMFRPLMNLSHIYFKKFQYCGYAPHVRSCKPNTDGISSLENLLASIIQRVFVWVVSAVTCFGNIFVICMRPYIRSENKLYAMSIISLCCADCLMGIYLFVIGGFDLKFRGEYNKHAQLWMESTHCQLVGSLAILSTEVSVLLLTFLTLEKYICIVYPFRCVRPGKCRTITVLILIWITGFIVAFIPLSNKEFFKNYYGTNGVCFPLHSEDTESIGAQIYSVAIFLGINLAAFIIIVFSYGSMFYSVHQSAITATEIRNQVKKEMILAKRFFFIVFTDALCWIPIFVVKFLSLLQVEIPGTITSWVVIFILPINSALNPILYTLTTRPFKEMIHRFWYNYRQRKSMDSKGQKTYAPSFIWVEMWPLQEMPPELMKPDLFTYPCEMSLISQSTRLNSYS
Test: OVCAR5 cAMP assay (HTRF), RXFP1 agonist activity
Assay type: cell-based
Details: for Emax: OVCAR-5, maximal cAMP relative to H2-relaxin maximum (100%), read-out: EMax, OVCAR 5 cells (cAMP); for EC50: OVCAR5 cells, cAMP HTRF, read-out: EC50 (nM), OVCAR 5 cells (cAMP)
Summary of the method: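 OVCAR5 cells (endogenous RXFP1) pretreated 40 min at 37° C with 1 mM IBMX, then exposed to peptides in serum-free medium for 30 min at 37° C. Lysate cAMP read by HTRF; EC50 from variable-slope sigmoidal fit; Emax as % of H2-relaxin maximal cAMP in same run.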

Emax [%]	EC50 [nM]	SMILES
92	0.3	CCCCCCCCCCCCCCCC(=O)N[C@@H](CCC(=O)NCCCC[C@H](NC(=O)CC[C@H](NC(=O)CC[C@H](NC(=O)CC[C@H](NC(=O)COCCOCCNC(=O)COCCOCCNC(=O)COCCOCCNC(=O)COCCOCCNC(=O)[C@H](CCCCNC(C)=O)NC(=O)[C@H](C)NC(=O)[C@H](C)NC(=O)[C@](C)(CCCCN)NC(=O)[C@H](CO)NC(=O)[C@H](Cc1ccccc1)NC(=O)[C@@H](NC(=O)[C@H](CO)NC(=O)[C@H](CCCC)NC(=O)CNC(=O)[C@H](CCC(=O)O)NC(=O)C(C)(C)NC(=O)C(C)(C)NC(=O)[C@@H](NC(=O)[C@H](CCCCNC(C)=O)NC(=O)[C@H](C)NC(=O)[C@H](CCCNC(=N)N)NC(=O)[C@@H](NC(=O)[C@H](CCCCN)NC(=O)[C@H](CCC(=O)O)NC(=O)[C@H](CCCNC(=N)N)NC(=O)CNC(=O)[C@H](CCC(=O)O)NC(=O)[C@H](CC(C)C)NC(C)=O)C(C)C)[C@@H](C)CC)[C@@H](C)O)C(=O)O)C(=O)O)C(=O)O)C(N)=O)C(=O)O [compound 139] (Ac-LEGREKVRAK(Ac)I[Aib][Aib]EG[Nle]STFS[αMeK]AAK(Ac)[AEEA][AEEA][AEEA][AEEA][γGlu][γGlu][γGlu]K([γGlu-Palmitoyl])-NH2)
88	0.4	CCCCCCCCCCCCCCCC(=O)N[C@@H](CCC(=O)N[C@@H](CCC(=O)N[C@@H](CCC(=O)N[C@@H](CCC(=O)NCCOCCOCC(=O)NCCOCCOCC(=O)NCCOCCOCC(=O)NCCOCCOCC(=O)NCCCC[C@H](NC(=O)[C@H](CCCCNC(C)=O)NC(=O)[C@H](CCCCN)NC(=O)[C@H](CCCNC(=N)N)NC(=O)[C@](C)(CCCCN)NC(=O)[C@H](CO)NC(=O)[C@H](Cc1ccccc1)NC(=O)[C@@H](NC(=O)[C@H](CO)NC(=O)[C@H](CCCC)NC(=O)CNC(=O)[C@H](CCC(=O)O)NC(=O)C(C)(C)NC(=O)C(C)(C)NC(=O)[C@@H](NC(=O)[C@H](CCCCNC(C)=O)NC(=O)[C@H](C)NC(=O)[C@H](CCCNC(=N)N)NC(=O)[C@@H](NC(=O)[C@H](CCCCN)NC(=O)[C@H](CCC(=O)O)NC(=O)[C@H](CCCNC(=N)N)NC(=O)CNC(=O)[C@H](CCC(=O)O)NC(=O)[C@H](CC(C)C)NC(C)=O)C(C)C)[C@@H](C)CC)[C@@H](C)O)C(N)=O)C(=O)O)C(=O)O)C(=O)O)C(=O)O [compound 140] (Ac-LEGREKVRAK(Ac)I[Aib][Aib]EG[Nle]STFS[αMeK]RKK(Ac)K([AEEA-AEEA-AEEA-AEEA-γGlu-γGlu-γGlu-γGlu-Palmitoyl])-NH2)
87	0.16	CCCCCCCCCCCCCCCC(=O)N[C@@H](CCC(=O)N[C@@H](CCC(=O)N[C@@H](CCC(=O)N[C@@H](CCC(=O)NCCOCCOCC(=O)NCCOCCOCC(=O)NCCOCCOCC(=O)NCCOCCOCC(=O)NCCCC[C@H](NC(=O)[C@H](CCCCNC(C)=O)NC(=O)[C@H](CCCC[N+](C)(C)C)NC(=O)[C@H](CCCNC(=N)NC)NC(=O)[C@](C)(CCCCN)NC(=O)[C@H](CO)NC(=O)[C@H](Cc1c[nH]c2ccccc12)NC(=O)[C@@H](NC(=O)[C@H](CO)NC(=O)[C@H](CCCC)NC(=O)CNC(=O)[C@H](CCC(=O)O)NC(=O)C(C)(C)NC(=O)C(C)(C)NC(=O)[C@@H](NC(=O)[C@H](CCCCNC(C)=O)NC(=O)[C@H](C)NC(=O)[C@H](CCCNC(=N)N)NC(=O)[C@@H](NC(=O)[C@H](CCCCN)NC(=O)[C@H](CCC(=O)O)NC(=O)[C@H](CCCNC(=N)N)NC(=O)CNC(=O)[C@H](CCC(=O)O)NC(=O)[C@H](CC(C)C)NC(C)=O)C(C)C)[C@@H](C)CC)[C@@H](C)O)C(N)=O)C(=O)O)C(=O)O)C(=O)O)C(=O)O [compound 141] (Ac-LEGREKVRAK(Ac)I[Aib][Aib]EG[Nle]STWS[αMeK][Arg(Me)][Lys(Me3)]K(Ac)K([AEEA-AEEA-AEEA-AEEA-γGlu-γGlu-γGlu-γGlu-Palmitoyl])-NH2)

More lines, now with the values behind:

SMILES	Emax [%]	EC50 [nM]
CCCCCCCCCCCCCCCCCC(=O)N[C@@H](CCC(=O)N[C@@H](CCC(=O)N[C@@H](CCC(=O)NCCOCCOCC(=O)NCCOCCOCC(=O)NCCOCCOCC(=O)NCCCC[C@H](NC(=O)[C@H](CCCCNC(C)=O)NC(=O)[C@H](CCCC[N+](C)(C)C)NC(=O)[C@H](CCCNC(=N)N)NC(=O)C(C)(C)NC(=O)[C@H](CO)NC(=O)[C@H](Cc1c[nH]c2ccccc12)NC(=O)[C@@H](NC(=O)[C@H](CO)NC(=O)[C@H](CCCC)NC(=O)CNC(=O)[C@H](CCC(=O)O)NC(=O)C(C)(C)NC(=O)C(C)(C)NC(=O)[C@@H](NC(=O)[C@H](CCCCNC(C)=O)NC(=O)[C@H](C)NC(=O)[C@H](CCCNC(=N)N)NC(=O)[C@@H](NC(=O)[C@H](CCCCN)NC(=O)[C@H](CCC(=O)O)NC(=O)[C@H](CCCNC(=N)N)NC(=O)CNC(=O)[C@H](CCC(=O)O)NC(=O)[C@H](CC(C)C)NC(C)=O)C(C)C)[C@@H](C)CC)[C@@H](C)O)C(N)=O)C(=O)O)C(=O)O)C(=O)O [compound 134] (Ac-LEGREKVRAK(Ac)I[Aib][Aib]EG[Nle]STWS[Aib]R[Lys(Me3)]K(Ac)K([AEEA-AEEA-AEEA-γGlu-γGlu-γGlu-Stearoyl])-NH2)	100	–
CCCCCCCCCCCCCCCCCC(=O)N[C@@H](CCC(=O)N[C@@H](CCC(=O)N[C@@H](CCC(=O)NCCOCCOCC(=O)NCCOCCOCC(=O)NCCOCCOCC(=O)NCCOCCOCC(=O)NCCCC[C@H](NC(=O)[C@H](CCCCNC(C)=O)NC(=O)[C@H](C)NC(=O)[C@H](CCCNC(=N)N)NC(=O)[C@](C)(CCCCN)NC(=O)[C@H](CO)NC(=O)[C@H](Cc1c[nH]c2ccccc12)NC(=O)[C@@H](NC(=O)[C@H](CO)NC(=O)[C@H](CCCC)NC(=O)CNC(=O)[C@H](CCC(=O)O)NC(=O)C(C)(C)NC(=O)C(C)(C)NC(=O)[C@@H](NC(=O)[C@H](CCCCNC(C)=O)NC(=O)[C@H](C)NC(=O)[C@H](CCCNC(=N)N)NC(=O)[C@@H](NC(=O)[C@H](CCCCN)NC(=O)[C@H](CCC(=O)O)NC(=O)[C@H](CCCNC(=N)N)NC(=O)CNC(=O)[C@H](CCC(=O)O)NC(=O)[C@H](CC(C)C)NC(C)=O)C(C)C)[C@@H](C)CC)[C@@H](C)O)C(N)=O)C(=O)O)C(=O)O)C(=O)O [compound 135] (Ac-LEGREKVRAK(Ac)I[Aib][Aib]EG[Nle]STWS[αMeK]RAK(Ac)K([AEEA-AEEA-AEEA-AEEA-γGlu-γGlu-γGlu-Stearoyl])-NH2)	97	–
CCCCCCCCCCCCCCCCCC(=O)N[C@@H](CCC(=O)N[C@@H](CCC(=O)N[C@@H](CCC(=O)NCCOCCOCC(=O)NCCOCCOCC(=O)NCCOCCOCC(=O)NCCCC[C@H](NC(=O)[C@H](CCCCNC(C)=O)NC(=O)[C@H](CCCC[N+](C)(C)C)NC(=O)[C@H](CCCNC(=N)NC)NC(=O)C(C)(C)NC(=O)[C@H](CO)NC(=O)[C@H](Cc1c[nH]c2ccccc12)NC(=O)[C@@H](NC(=O)[C@H](CO)NC(=O)[C@H](CCCC)NC(=O)CNC(=O)[C@H](CCC(=O)O)NC(=O)C(C)(C)NC(=O)C(C)(C)NC(=O)[C@@H](NC(=O)[C@H](CCCCNC(C)=O)NC(=O)[C@H](C)NC(=O)[C@H](CCCNC(=N)N)NC(=O)[C@@H](NC(=O)[C@H](CCCCN)NC(=O)[C@H](CCC(=O)O)NC(=O)[C@H](CCCNC(=N)N)NC(=O)CNC(=O)[C@H](CCC(=O)O)NC(=O)[C@H](CC(C)C)NC(C)=O)C(C)C)[C@@H](C)CC)[C@@H](C)O)C(N)=O)C(=O)O)C(=O)O)C(=O)O [compound 137] (Ac-LEGREKVRAK(Ac)I[Aib][Aib]EG[Nle]STWS[Aib][Arg(Me)][Lys(Me3)]K(Ac)K([AEEA-AEEA-AEEA-γGlu-γGlu-γGlu-Stearoyl])-NH2)	92	0.21
CCCCCCCCCCCCCCCCCC(=O)N[C@@H](CCC(=O)N[C@@H](CCC(=O)N[C@@H](CCC(=O)N[C@@H](CCC(=O)NCCOCCOCC(=O)NCCOCCOCC(=O)NCCOCCOCC(=O)NCCCC[C@H](NC(=O)[C@H](CCCCNC(C)=O)NC(=O)[C@H](CCCC[N+](C)(C)C)NC(=O)[C@H](CCCNC(=N)NC)NC(=O)[C@](C)(CCCCN)NC(=O)[C@H](CO)NC(=O)[C@H](Cc1c[nH]c2ccccc12)NC(=O)[C@@H](NC(=O)[C@H](CO)NC(=O)[C@H](CCCC)NC(=O)CNC(=O)[C@H](CCC(=O)O)NC(=O)C(C)(C)NC(=O)C(C)(C)NC(=O)[C@@H](NC(=O)[C@H](CCCCNC(C)=O)NC(=O)[C@H](C)NC(=O)[C@H](CCCNC(=N)N)NC(=O)[C@@H](NC(=O)[C@H](CCCCN)NC(=O)[C@H](CCC(=O)O)NC(=O)[C@H](CCCNC(=N)N)NC(=O)CNC(=O)[C@H](CCC(=O)O)NC(=O)[C@H](CC(C)C)NC(C)=O)C(C)C)[C@@H](C)CC)[C@@H](C)O)C(N)=O)C(=O)O)C(=O)O)C(=O)O)C(=O)O [compound 138] (Ac-LEGREKVRAK(Ac)I[Aib][Aib]EG[Nle]STWS[αMeK][Arg(Me)][Lys(Me3)]K(Ac)K([AEEA-AEEA-AEEA-γGlu-γGlu-γGlu-γGlu-Stearoyl])-NH2)	91	–
